≈ marks a conversion by molar mass, not a printed value. Where two headings read alike, the source gives them in different places.
Legend:
Format in all cases: cell-based, S. cerevisiae
[1] = system: strains A and B; experiment: Whole-cell comparison of strains A and B (and wild type) with antifungal compounds that do not target IPC synthase; conditions: strains A and B compared
Procedure: (§1) Strains A and B, and wild-type strain YPH499 (transformed with YEp352) were tested for sensitivity to a variety of known antifungal compounds. Cells were grown in YEPD or SC-URA (2% glucose) liquid culture and dispensed into the wells of a 96-well microtiter dish containing decreasing amounts of antifungal compounds, as in Example 2.

[2] = system: YPH499 (transformed by YEp352); experiment: Sensitivity to antifungal compounds (MIC), wild-type YPH499 (YEp352); conditions: for MIC: Saccharomyces cerevisiae, read-out: Minimum Inhibitory Concentration
Procedure: as §1
(§2) ^a Cells were grown in SCURA (2% glucose)
^b YPH499 is transformed by YEp352.

[3] = system: Strain A; experiment: Sensitivity to antifungal compounds (MIC), Strain A; conditions: for MIC: Saccharomyces cerevisiae, read-out: Minimum Inhibitory Concentration
Procedure: as §1, §2

[4] = system: Strain B; experiment: Sensitivity to antifungal compounds (MIC), Strain B; conditions: for MIC: Saccharomyces cerevisiae, read-out: Minimum Inhibitory Concentration
Procedure: as §1, §2

Q: `CC(=O)N1CCN(c2ccc(OCC3COC(Cn4ccnc4)(c4ccc(Cl)cc4Cl)O3)cc2)CC1` (centres unmarked) [ketoconazole] was tested. Which “effect on strains A and B (in words)” value [1] did it give?
A: Its value is “equally affected”.

Q: How did the MIC [2] turn out when `C[C@@H]1C[C@@H]([C@H](O)CC2CC(=O)NC(=O)C2)C(=O)[C@@H](C)C1` [Cycloheximide] was run?
A: Its MIC is 300 µg/mL (≈ 1070 µM).

Q: And the MIC [3]?
A: The MIC was 300 µg/mL (≈ 1070 µM).

Q: What about the MIC [4] of the same compound?
A: Its MIC is 600 µg/mL (≈ 2130 µM).

Q: What about the “effect on strains A and B (in words)” value [1] of the same compound?
A: Its value is “equally affected”.

Q: Which MIC ([2]; SC-URA (2% glucose)) does the source give for `CCC(C)n1ncn(-c2ccc(N3CCN(c4ccc(OCC5COC(Cn6cncn6)(c6ccc(Cl)cc6Cl)O5)cc4)CC3)cc2)c1=O` (centres unmarked) [Itraconazole] here?
A: Its MIC is 1200 µg/mL (≈ 1700 µM).

Q: And the MIC ([3]; SC-URA (2% glucose))?
A: Its MIC is 1200 µg/mL (≈ 1700 µM).

Q: What about the MIC ([4]; SC-URA (2% glucose)) of the same compound?
A: The MIC was 1200 µg/mL (≈ 1700 µM).

Q: Which results are given for `C[C@@H]1[C@H](O)[C@@H](C)/C=C/C=C/C=C/C=C/C=C/C=C/C=C/[C@H](O[C@@H]2O[C@H](C)[C@@H](O)[C@H](N)[C@@H]2O)C[C@@H]2O[C@](O)(C[C@@H](O)C[C@@H](O)[C@H](O)CC[C@@H](O)C[C@@H](O)CC(=O)O[C@H]1C)C[C@H](O)[C@H]2C(=O)O` [Amphotericin B]?
A: MIC ([2]; SC-URA (2% glucose)): 2500 µg/mL (≈ 2710 µM); MIC ([3]; SC-URA (2% glucose)): 2500 µg/mL (≈ 2710 µM); MIC ([4]; SC-URA (2% glucose)): 2500 µg/mL (≈ 2710 µM); effect on strains A and B (in words) [1]: equally affected

Q: Which results are given for `OC(Cn1cncn1)(Cn1cncn1)c1ccc(F)cc1F` [Fluconazole]?
A: MIC ([2]; SC-URA (2% glucose)): > 80000 µg/mL; MIC ([3]; SC-URA (2% glucose)): > 80000 µg/mL; MIC ([4]; SC-URA (2% glucose)): > 80000 µg/mL; effect on strains A and B (in words) [1]: equally affected

Q: What does the source list for `C[C@@H]1[C@H](O)[C@@H](C)/C=C/C=C/CC/C=C/C=C/C=C/C=C/C(O[C@H]2O[C@H](C)[C@@H](O)[C@H](N)[C@@H]2O)CC2O[C@](O)(CC(O)C(O)CCC(O)CC(O)CC(O)CC(=O)O[C@H]1C)CC(O)C2C(=O)O` (some centres unmarked) [Nystatin]?
A: Minimum Inhibitory Concentration ([2]; SC-URA (2% glucose)): 20 mg/mL; Minimum Inhibitory Concentration ([3]; SC-URA (2% glucose)): 20 mg/mL; Minimum Inhibitory Concentration ([4]; SC-URA (2% glucose)): 20 mg/mL; effect on strains A and B (in words) [1]: equally affected

— US5976866A, “Screen for inhibitors of fungal IPC synthase” (Eli Lilly and Company, priority 1997, dated 1999)
